From US4562151A, “Stabilization of L-phenylalanine ammonia-lyase enzyme” (Monsanto Company, priority 1983, dated 1985)

Tests used:
[1] = system: L-phenylalanine ammonia-lyase; assay: Relative effect of polyhydric alcohols on PAL activity, 19 hour incubation (Table III); assay type: biochemical, R. glutinis; details: for PAL Enzyme Activity: 240 mM cinnamate, 6.0 M ammonia, pH 11.5, 37° C., cells about 90 mg/ml, 19 hour incubation, control without alcohol 28; for Stabilizing effect on L-phenylalanine ammonia-lyase: monohydric and dihydric alcohols, concentration not given
Description: The reaction mixture consisted of 6.0 M ammonia, 240 mM cinnamate, R. glutinis cells and the above described polyhydric alcohol at pH 11.5 and 37° C. The final concentration of R. glutinis cells was approximately 90 mg/ml (wet weight). L-phenylalanine formation was determinted by high pressure liquid chromatography following a 19 hour incubation period.

[2] = system: L-phenylalanine ammonia-lyase enzyme; assay: Effect of cinnamate concentration on PAL activity, R. glutinis cells, with or without glycerol (Table I); assay type: biochemical, Rhodotorula glutinis; details: for PAL Activity with glycerol: glycerol 2.3 M, ammonia 6.8 M, pH 11.2, 37° C., activity at 46.1 mM cinnamate taken as 100
Description: For conciseness, the following explanation and examples of the present invention are described with respect to L-phenylalanine ammonia-lyase enzyme from Rhodotorula glutinis cells (ATCC 15385) known to catalyze the reversible reaction between trans-cinnamate and an ammonia donor to form L-phenylalanine. To facilitate transport of substrate and product across the cell membrane about 3 to 5 microliters of polyethyleneglycol-p-isooctylphenylether per gram wet weight of cells is preferably added to the microbial cell suspension. It should be understood that the addition of polyethylene glycol-p-isooctylphenylether or other detergents which increase the permeability of cell membranes is not necessary for practice of the present invention.
The effects of increasing cinnamate concentrations on the reactivity of L-phenylalanine ammonia-lyase enzyme with and without the addition of glycerol are shown in Table I.
^(1) glycerol concentration = 2.3 M, ammonia concentration = 6.8 M; p
of the reaction mixture = 11.2; temperature = 37° C.; concentratio
of R. glutinis cells = 90 mg/ml. Enzyme activity at 46.1 mM cinnamate was
^(2) ammonia concentration = 6.8 M; pH of the reaction mixture = 11.2
temperature = 37° C.; concentration of R. glutinis cells = 90
mg/ml. Enzyme activity at 60.0 mM cinnamate was taken as 100.

[3] = system: L-phenylalanine ammonia-lyase enzyme; assay: 24 hour time course of L-phenylalanine formation with and without glycerol (Figure); assay type: biochemical, R. glutinis; details: 2.0 M glycerol, 200 mM cinnamate, 6.0 M ammonia, pH 11.5, 37° C., cells about 90 mg/ml
Description: Further experiments have shown that polyhydric alcohols, such as glycerol, have a substantial effect on the short-term activity of the L-phenylalanine ammonia-lyase enzyme in addition to a stabilizing effect on the long-term activity of the enzyme. The relative rates of L-phenylalanine formation from trans-cinnamate for a twenty-four hour period in the presence and absence of glycerol are plotted in the graph shown in the Figure. The reaction mixture consisted of 200 mM cinnamate, 6.0 M ammonia, 2.0 M glycerol and R. glutinis cells at pH 11.5 and 37° C. The final concentration of R. glutinis cells was approximately 90 mg/ml(wet weight). L-phenylalanine formation was determined by high pressure liquid chromatography. The amount of L-phenylalanine formed in twenty-four hours in the absence of glycerol was taken as 100.

OC[C@@H](O)[C@@H](O)[C@H](O)[C@H](O)CO [D-mannitol]
PAL Enzyme Activity ([1]; alcohol 0.43 M): 29

OC[C@@H](O)[C@@H](O)[C@H](O)[C@@H](O)CO [D-sorbitol]
PAL Enzyme Activity ([1]; alcohol 0.43 M): 74

CCCCO [butanol]
Stabilizing effect on L-phenylalanine ammonia-lyase [1]: found not to generate the stabilizing effect

CCO [ethanol]
Stabilizing effect on L-phenylalanine ammonia-lyase [1]: found not to generate the stabilizing effect

OCCO [ethylene glycol]
Stabilizing effect on L-phenylalanine ammonia-lyase [1]: found not to generate the stabilizing effect

OCC(O)CO [glycerol]
PAL Activity with glycerol ([2]; 46.1 mM cinnamate, R. glutinis cells 90 mg/ml): 100 | PAL Activity with glycerol ([2]; 140.0 mM cinnamate, cells 90 mg/ml): 100 | PAL Activity with glycerol ([2]; 185.0 mM cinnamate, cells 90 mg/ml): 75 | PAL Activity with glycerol ([2]; 250.0 mM cinnamate, cells 90 mg/ml): 59 | Activity of L-phenylalanine ammonia-lyase at 250 mM cinnamate relative to that measured at 50 mM ([2]; 250 mM versus 50 mM cinnamate, in presence of glycerol): about 60% | Instantaneous rate of reaction (initial slope of curve) versus control without glycerol [3]: higher instantaneous rate of reaction | L-phenylalanine formed during the 12 to 24 hr period (long term stabilizing effect) ([3]; without glycerol enzyme essentially inactivated after 12 hours): substantial amount of L-phenylalanine formed during the 12 to 24 hr period | PAL Enzyme Activity ([1]; alcohol 0.72 M): 100

CO [methanol]
Stabilizing effect on L-phenylalanine ammonia-lyase [1]: found not to generate the stabilizing effect
